Reference: patent US20140323506A1, “COMBINATION” (GlaxoSmithKline Intellectual Property Development Limited, priority 2010, published 2014)

What was measured:
Assay type in all cases: in vivo, CD-1 nude mice
[1] = Body weight of nude mice bearing A375P F11s xenografts during treatment
Description: (§1) Female CD-1 nude mice of 6-8 weeks in age were used in these studies; all mice were obtained from Charles River Laboratories (Wilmington, Del.). Animals were housed in pathogen free conditions and handled with aseptic technique.
(§2) Mice with similar sized tumors (100-300 mm^3) were identified. The length and width of the tumors were measured by handheld calipers and body weights of the mice were measured using a bench top weighing scale. Tumor volumes were calculated based on the following formula: tumor volume=(Length×Width^2)/2. Mice were block randomized into the required number of dosing groups (n=8 mice/group). The randomization process ensured that the average tumor volume for each dosing group was approximately equal at the beginning of the study and mice with differing tumor volumes were evenly distributed. Mice were placed in groups of eight accordingly and dosed with either vehicle or compound for 36 days either once or twice daily, as summarised in the table below. Mice were weighed and tumors measured twice weekly for the duration of the study using Studylog animal study management software (Studylog Systems, Inc., South San Francisco, Calif., USA).

[2] = tested on: A375P F11s tumor xenografts; experiment: A375P F11s tumor xenograft efficacy in nude mice
Description: as §1
The A375P F11s cell line, encoding a mutation for BRAF^V600E, was subcloned from the A375P human melanoma cell line (obtained from ATCC, Cat # CRL-1619).
The A375P F11s cell lines were grown in RPMI growth medium supplemented with 10% fetal bovine serum (FBS), 1% sodium pyruvate and 1% penicillin-streptomycin in a humidified 37° C. chamber with 5% CO2. Cells were expanded to obtain the large numbers of cells required for each injection; cells were grown in log phase, without reaching confluency and passaged regularly.
A375P F11s cells were harvested from culture flasks by exposure to 0.25% trypsin/EDTA for 5 min at 37° C. Detached cells were collected, centrifuged (1500 rpm, 5 min, 4° C.) and rinsed to remove the trypsin solution. Cells were re-suspended in PBS without magnesium or calcium and counted. Cells were spun as described previously to remove PBS and a single cell suspension was created in 50% Matrigel: 50% PBS (v:v) so that a 100 μL subcutaneous injection would deliver 1.75 million cells per mouse.
Compounds were administered in vehicles as described below.
as §2
Tumor volumes were calculated based on the following formula: tumor volume=(Length×Width^2)/2. Tumor growth curves were created from the mean±standard error of the mean, with n=8 animals per group. The percentage of tumor growth inhibition was calculated on the final day of dosing using the following formula: 1—(tumor volume in drug-treated population/tumor volume in vehicle-treated control population).

[3] = tested on: A375P F11s tumor xenografts; experiment: A375P F11s tumor xenograft efficacy in nude mice; remark: listed apart in the source
[4] = Group 3: Compound B 0.1 mg/kg PO QD, study day 0
[5] = Group 3: Compound B 0.1 mg/kg PO QD, study day 3
[6] = Group 3: Compound B 0.1 mg/kg PO QD, study day 7
[7] = Group 3: Compound B 0.1 mg/kg PO QD, study day 9
[8] = Group 3: Compound B 0.1 mg/kg PO QD, study day 15
[9] = Group 3: Compound B 0.1 mg/kg PO QD, study day 18
[10] = Group 3: Compound B 0.1 mg/kg PO QD, study day 22
[11] = Group 3: Compound B 0.1 mg/kg PO QD, study day 25
[12] = Group 3: Compound B 0.1 mg/kg PO QD, study day 28
[13] = Group 6: Compound B 0.3 mg/kg PO QD, study day 0
[14] = Group 6: Compound B 0.3 mg/kg PO QD, study day 3
[15] = Group 6: Compound B 0.3 mg/kg PO QD, study day 7
[16] = Group 6: Compound B 0.3 mg/kg PO QD, study day 9
[17] = Group 6: Compound B 0.3 mg/kg PO QD, study day 15
[18] = Group 6: Compound B 0.3 mg/kg PO QD, study day 18
[19] = Group 6: Compound B 0.3 mg/kg PO QD, study day 22
[20] = Group 6: Compound B 0.3 mg/kg PO QD, study day 25
[21] = Group 6: Compound B 0.3 mg/kg PO QD, study day 28
[22] = Group 6: Compound B 0.3 mg/kg PO QD, study day 31
[23] = Group 6: Compound B 0.3 mg/kg PO QD, study day 35
[24] = Group 6: Compound B 0.3 mg/kg PO QD, study day 37

## Cc1ccc(Nc2nccc(N(C)c3ccc4c(C)n(C)nc4c3)n2)cc1S(N)(=O)=O [Compound A, 5-[[4-[(2,3-dimethyl-2H-indazol-6-yl)methylamino]-2-pyrimidinyl]amino]-2-methylbenzenesulfonamide, reference compound]
[1]; Group 2: Compound A 100 mg/kg PO BID, study day 0
  Mean body weight: 24.98 g
[1]; Group 2: Compound A 100 mg/kg PO BID, study day 3
  Mean body weight: 25.13 g
[1]; Group 2: Compound A 100 mg/kg PO BID, study day 7
  Mean body weight: 25.63 g
[1]; Group 2: Compound A 100 mg/kg PO BID, study day 9
  Mean body weight: 25.29 g
[1]; Group 2: Compound A 100 mg/kg PO BID, study day 15
  Mean body weight: 24.83 g
[1]; Group 2: Compound A 100 mg/kg PO BID, study day 18
  Mean body weight: 25.35 g
[1]; Group 2: Compound A 100 mg/kg PO BID, study day 22
  Mean body weight: 24.71 g
[1]; Group 2: Compound A 100 mg/kg PO BID, study day 25
  Mean body weight: 24.79 g
[1]; Group 2: Compound A 100 mg/kg PO BID, study day 28
  Mean body weight: 24.91 g
[1]; Group 2: Compound A 100 mg/kg PO BID, study day 31
  Mean body weight: 25.33 g
[1]; Group 2: Compound A 100 mg/kg PO BID, study day 35
  Mean body weight: 24.95 g
[1]; Group 2: Compound A 100 mg/kg PO BID, study day 37
  Mean body weight: 25.00 g

## CC(=O)Nc1cccc(-n2c(=O)n(C3CC3)c(=O)c3c(Nc4ccc(I)cc4F)n(C)c(=O)c(C)c32)c1 [Compound B, N-{3-[3-cyclopropyl-5-(2-fluoro-4-iodo-phenylamino)-6,8-dimethy-2,4,7-trioxo-3,4,6,7-tetrahydro-2H-pyrido[4,3-d]pyrimidin-1-yl]phenyl}acetamide]
[2]; Compound B 0.3 mg/kg QD
  smaller tumors compared to vehicle control: 70.4%
[2]; Compound B alone 0.3 mg/kg, treatment continued until day 37
  tumor volume course under extended treatment: tumor volume started to increase even under continued drug treatment
[2]; [4]
  Mean tumor volume: 199.3 mm^3
  Percent inhibition of tumor volume compared to vehicle treated mice: −15.70%
[2]; [5]
  Mean tumor volume: 260.5 mm^3
[2]; [6]
  Mean tumor volume: 300.8 mm^3
  Percent inhibition of tumor volume compared to vehicle treated mice: 3.1%
[2]; [7]
  Mean tumor volume: 335.1 mm^3
  Percent inhibition of tumor volume compared to vehicle treated mice: 14.2%
[2]; [8]
  Mean tumor volume: 459.3 mm^3
  Percent inhibition of tumor volume compared to vehicle treated mice: 28.2%
[2]; [9]
  Mean tumor volume: 616.2 mm^3
  Percent inhibition of tumor volume compared to vehicle treated mice: 15.3%
[2]; [10]
  Mean tumor volume: 916.9 mm^3
[2]; [11]
  Mean tumor volume: 1,100.3 mm^3
  Percent inhibition of tumor volume compared to vehicle treated mice: −1.0%
[2]; [12]
  Mean tumor volume: 1,338.4 mm^3
  Percent inhibition of tumor volume compared to vehicle treated mice: −6.8%
[2]; [13]
  Mean tumor volume: 198.8 mm^3
[2]; [14]
  Mean tumor volume: 205.9 mm^3
  Percent inhibition of tumor volume compared to vehicle treated mice: 17.7%
[2]; [15]
  Mean tumor volume: 141.2 mm^3
  Percent inhibition of tumor volume compared to vehicle treated mice: 54.5%
[2]; [16]
  Mean tumor volume: 124.4 mm^3
[2]; [17]
  Mean tumor volume: 115.1 mm^3
[2]; [18]
  Mean tumor volume: 141.4 mm^3
  Percent inhibition of tumor volume compared to vehicle treated mice: 80.5%
[2]; [19]
  Mean tumor volume: 217.3 mm^3
[2]; [20]
  Mean tumor volume: 300.3 mm^3
  Percent inhibition of tumor volume compared to vehicle treated mice: 72.4%
[2]; [21]
  Mean tumor volume: 370.6 mm^3
  Percent inhibition of tumor volume compared to vehicle treated mice: 70.4%
[2]; [22]
  Mean tumor volume: 450.5 mm^3
[2]; [23]
  Mean tumor volume: 529.1 mm^3
[2]; [24]
  Mean tumor volume: 604.4 mm^3
[3]; [5]
  Percent inhibition of tumor volume compared to vehicle treated mice: −4.1%
[3]; [10]
  Percent inhibition of tumor volume compared to vehicle treated mice: 2.1%
[3]; [13]
  Percent inhibition of tumor volume compared to vehicle treated mice: −15.41%
[3]; [16]
  Percent inhibition of tumor volume compared to vehicle treated mice: 68.1%
[3]; [17]
  Percent inhibition of tumor volume compared to vehicle treated mice: 82.0%
[3]; [19]
  Percent inhibition of tumor volume compared to vehicle treated mice: 76.8%
[1]; [4]
  Mean body weight: 26.30 g
[1]; [5]
  Mean body weight: 26.00 g
[1]; [6]
  Mean body weight: 26.24 g
[1]; [7]
  Mean body weight: 26.23 g
[1]; [8]
  Mean body weight: 26.09 g
[1]; [9]
  Mean body weight: 27.09 g
[1]; [10]
  Mean body weight: 26.73 g
[1]; [11]
  Mean body weight: 26.80 g
[1]; [12]
  Mean body weight: 26.93 g
[1]; [13]
  Mean body weight: 24.59 g
[1]; [14]
  Mean body weight: 24.10 g
[1]; [15]
  Mean body weight: 23.89 g
[1]; [16]
  Mean body weight: 23.93 g
[1]; [17]
  Mean body weight: 23.94 g
[1]; [18]
  Mean body weight: 24.41 g
[1]; [19]
  Mean body weight: 23.83 g
[1]; [20]
  Mean body weight: 23.95 g
[1]; [21]
  Mean body weight: 24.18 g
[1]; [22]
  Mean body weight: 24.49 g
[1]; [23]
  Mean body weight: 24.54 g
[1]; [24]
  Mean body weight: 24.64 g
